Tests used:
[1] = target: human JAK2 (Homo sapiens (Human), UniProt O60674); conditions: read-out: JAK2 IC50
[2] = target: human FAK (Homo sapiens (Human), UniProt Q05397); conditions: read-out: FAK IC50
Chain of human FAK (Q05397 whole entry): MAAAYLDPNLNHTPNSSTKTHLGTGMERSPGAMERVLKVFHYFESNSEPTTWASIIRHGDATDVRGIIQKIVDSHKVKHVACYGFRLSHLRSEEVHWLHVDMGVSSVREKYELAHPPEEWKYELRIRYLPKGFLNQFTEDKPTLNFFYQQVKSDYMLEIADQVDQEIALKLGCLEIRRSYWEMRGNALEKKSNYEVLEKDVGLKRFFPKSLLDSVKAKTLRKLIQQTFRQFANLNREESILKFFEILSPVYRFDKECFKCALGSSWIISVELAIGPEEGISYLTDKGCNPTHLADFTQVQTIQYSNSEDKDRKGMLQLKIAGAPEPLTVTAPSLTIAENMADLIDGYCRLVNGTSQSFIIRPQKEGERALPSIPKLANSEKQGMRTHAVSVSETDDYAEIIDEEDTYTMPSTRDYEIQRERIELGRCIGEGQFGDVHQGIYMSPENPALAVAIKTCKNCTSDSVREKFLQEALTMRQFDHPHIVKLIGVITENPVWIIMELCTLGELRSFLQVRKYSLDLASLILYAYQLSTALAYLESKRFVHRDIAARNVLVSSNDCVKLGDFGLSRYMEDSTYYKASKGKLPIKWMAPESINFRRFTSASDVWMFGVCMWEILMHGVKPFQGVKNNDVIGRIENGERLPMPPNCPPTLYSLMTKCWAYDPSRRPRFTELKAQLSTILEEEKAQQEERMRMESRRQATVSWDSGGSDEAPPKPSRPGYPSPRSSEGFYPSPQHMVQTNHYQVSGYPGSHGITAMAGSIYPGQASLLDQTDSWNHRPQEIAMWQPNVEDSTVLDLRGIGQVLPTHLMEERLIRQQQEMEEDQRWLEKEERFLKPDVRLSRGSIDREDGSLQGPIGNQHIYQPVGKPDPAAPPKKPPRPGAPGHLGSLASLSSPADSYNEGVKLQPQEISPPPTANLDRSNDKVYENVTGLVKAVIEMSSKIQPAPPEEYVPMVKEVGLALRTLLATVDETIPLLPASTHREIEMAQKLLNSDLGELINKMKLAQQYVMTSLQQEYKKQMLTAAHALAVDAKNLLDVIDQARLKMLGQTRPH

Chain of human JAK2 (O60674 815-1132): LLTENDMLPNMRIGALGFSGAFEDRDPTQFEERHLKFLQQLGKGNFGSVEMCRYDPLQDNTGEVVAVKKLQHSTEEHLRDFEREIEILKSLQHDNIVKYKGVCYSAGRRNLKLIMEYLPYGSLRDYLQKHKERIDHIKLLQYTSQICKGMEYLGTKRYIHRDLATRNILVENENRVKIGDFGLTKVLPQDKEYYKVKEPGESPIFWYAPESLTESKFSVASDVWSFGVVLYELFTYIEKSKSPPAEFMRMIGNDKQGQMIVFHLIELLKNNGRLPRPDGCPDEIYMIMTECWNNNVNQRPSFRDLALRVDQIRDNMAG

Structure (SMILES) | IC50 [1] [nM] | IC50 [2] [nM]
CS(=O)(=O)c1ccc(-c2cccn3nc(Nc4cccc(N5CCOCC5)c4)nc23)cc1 [Example 27, [8-(4-Methanesulfonyl-phenyl)-[1,2,4]triazolo[1,5-a]pyridin-2-yl]-(3-morpholin-4-yl-phenyl)-amine] | 0.4 | 2020
CN1CCN(c2cccc(Nc3nc4c(-c5ccc(F)cc5)cccn4n3)c2)CC1 [Example 365, [8-(4-Fluoro-phenyl)-[1,2,4]-triazolo[1,5-a]pyridin-2-yl]-[3-(4-methyl-piperazin-1-yl)-phenyl]-amine] | 29.1 | 999
CS(=O)(=O)c1ccc(-c2cccc3nc(Nc4ccc(N5CCOCC5)cc4)nn23)cc1 [Example 12, [5-(4-Methanesulfonyl-phenyl)-[1,2,4]triazolo[1,5-a]pyridin-2-yl]-(4-morpholin-4-yl-phenyl)-amine] | 0.7 | 434
CN1CCN(c2ccc(Nc3nc4c(NCc5ccccc5CN(C)S(C)(=O)=O)cccn4n3)cc2)CC1 [Example 156, N-Methyl-N-[2-({2-[4-(4-methyl-piperazin-1-yl)-phenylamino]-[1,2,4]triazolo[1,5-a]pyridin-8-ylamino}-methyl)-benzyl]-methanesulfonamide] | 35.4 | 179
CN1CCN(c2ccc(Nc3nc4c(NCc5cccnc5)cccn4n3)cc2)CC1 [Example 151, N(2)-[4-(4-Methyl-piperazin-1-yl)-phenyl]-N(8)-pyridin-3-ylmethyl-[1,2,4]triazolo[1,5-a]pyridine-2,8-diamine] | 488 | 6500
COc1ccc(C(F)(F)F)cc1-c1cccn2nc(Nc3ccc4c(c3)CCNC4)nc12 [Example 337, [8-(2-Methoxy-5-trifluoromethyl-phenyl)-[1,2,4]triazolo[1,5-a]pyridine-2-yl]-(1,2,3,4-tetrahydro-isoquinolin-6-yl)-amine] | 41.9 | 778
CN1CCN(c2ccc(Nc3nc4c(NCc5ccccc5N(C)S(C)(=O)=O)cccn4n3)cc2)CC1 [Example 147, N-Methyl-N-[2-({2-[4-(4-methyl-piperazin-1-yl)-phenylamino]-[1,2,4]triazolo[1,5-a]pyridin-8-ylamino}-methyl)-phenyl]-methanesulfonamide] | 29.1 | 11.4
COCc1ccccc1-c1cccc2nc(Nc3ccc4c(c3)CCN(CCS(C)(=O)=O)CC4)nn12 [Example 230, [3-(2-Methanesulfonyl-ethyl)-2,3,4,5-tetrahydro-1H-benzo[d]azepin-7-yl]-[5-(2-methoxymethyl-phenyl)-[1,2,4]triazolo[1,5-a]pyridin-2-yl]-amine] | 27.6 | 2000
CCn1cc(Nc2nc3c(-c4ccc(S(C)(=O)=O)cc4)cccn3n2)cn1 [Example 209, (1-Ethyl-1H-pyrazol-4-yl)-[8-(4-methanesulfonyl-phenyl)-[1,2,4]triazolo[1,5-a]pyridin-2-yl]-amine] | 1.88 | 10000
CS(=O)(=O)c1ccc(-c2cccn3nc(Nc4ccc(N5CCOCC5)cc4)nc23)cc1 [Example 4, [8-(4-Methanesulfonyl-phenyl)-[1,2,4]triazolo[1,5-a]pyridin-2-yl]-(4-morpholin-4-yl-phenyl)-amine] | 0.9 | 461
COc1ccc(Nc2nc3c(NCc4ccccc4OC)cccn3n2)cn1 [Example 402, N(8)-(2-Methoxy-benzyl)-N(2)-(6-methoxy-pyridin-3-yl)-[1,2,4]triazolo[1,5-a]pyridine-2,8-diamine] | 42.7 | 3000
CN1CCN(c2cccc(Nc3nc4c(NCc5ccc(F)cc5)cccn4n3)c2)CC1 [Example 396, N(8)-(4-Fluoro-benzyl)-N(2)-[3-(4-methyl-piperazin-1-yl)-phenyl]-[1,2,4]triazolo[1,5-a]pyridine-2,8-diamine] | 1430 | 10000
